# Columns and labels:
# [1] = system: C22 animals (murine CMT model); test: Bar crossing (posture) test and grip test, third study; format: in vivo, mice
# Protocol: FIG. 2: A second series of preclinical tests with the same design as the first series (described in FIG. 1) was carried out. Animals were tested after one month and two months of treatment using the bar crossing test (the longer the animal takes to cross the bar or the more it slips off, the worse the locomotor performance). Animals were also tested in the grip test which measures the traction strength that must be applied for the animal to release the bar (the higher this value the better the performance). To confirm these findings and further investigate the mechanism of phenotypic correction, a third study was carried out. Two tests were used: a posture test (crossing a bar that gets progressively narrower) and a test of muscle strength, the “grip test”. FIG. 2 illustrates the results after two months of treatment. […] This test is a good indicator of muscle strength.
# [2] = system: transgenic C22 animals (murine CMT model, human YAC containing the PMP22 gene); test: Rotor-Rod test, first open trial in transgenic C22 animals; format: in vivo, mice; conditions: treated with vitamin C
# Protocol: To better understand the pathophysiology of this disease and to propose therapeutic solutions, a murine disease model was constructed in 1996 by transgenesis of a human YAC containing the PMP22 gene (Huxley et al., Human Molecular Genetics, 1996, Vol. 5, No. 5, 563-569). […] The action of vitamin C was tested in this model. A first “open” trial was carried out, without inclusion criteria, by simply separating males and females so as to rapidly determine whether a phenotypic correction effect could be seen. The Rotor-Rod test, classically used in pharmacology, was chosen as the criterion of muscle strength. […] The results, expressed in seconds, confirm that males were more severely affected (males in this line even have early mortality, since all males die before 10 months of age).
# [3] = system: C22 males (murine CMT model); test: Survival of treated C22 males under continued treatment; format: in vivo, mice; conditions: continued vitamin C treatment; untreated males die before 10 months of age
# Source text: The results, expressed in seconds, confirm that males were more severely affected (males in this line even have early mortality, since all males die before 10 months of age).
# Performance continued to improve, even after taking into account that the animals had aged.
# C22 mice = test: Histologic analysis of sciatic nerve, percentage of myelinated fibers; format: in vivo; conditions: C22 mice treated for three months
# Protocol: The sciatic nerve was harvested and the percentage of myelinated fibers was determined by histologic analysis and is given in the figure on the ordinate, together with the results of a non-transgenic control (more than 95% of peripheral nerve fibers are myelinated in adults).
# To obtain data on the mechanism of this phenotypic correction, the histologic features of the nerves of treated animals were studied. For this, some of the treated animals were sacrificed and a histologic analysis was performed. The percentage of myelinated nerve fibers increased with treatment (FIG. 3). This percentage was 95% for non-transgenic animals, 20-30% for untreated C22 mice and 70% for treated animals. The treatment therefore reactivated myelination, which was inhibited by overexpression of PMP22.
# [4] = system: C22 males (murine CMT model); test: Rotor-Rod test, double-blind study vitamin C versus placebo in C22 males; format: in vivo, mice; conditions: 1.12 mg once a week by gavage
# Protocol: Rotor-Rod test performance was evaluated every month (at 3 months, 4 months and 5 months). The standard deviation is indicated by the darkened section at the top of each column. […] Only males (from two litters) were used, since the degree of severity is sex-specific. […] The fact that only males were included is very important, because it is known that severity varies widely in human patients according to sex, a variability also seen in the animal models used, in which there appears to be a major modifier gene having an impact on myelination. “Genetic background” thus seems to play a significant role in the severity of the phenotype. It was therefore justified to work with individuals from a same litter. […] The animals were then evaluated in the Rotor-Rod test. The study lasted for three months (age of animals: two to five months). The results are illustrated in FIG. 1.
smiles,measurement,setting,value
"O=C1O[C@H]([C@@H](O)CO)C(O)=C1O [vitamin C, ascorbic acid]",Bar crossing performance,[1]; after one and two months of treatment,"deteriorated at the first month, then improved during the second"
same,Grip test (muscle strength),[1]; after two months of treatment,improvement was also seen starting from two months of treatment
same,"Seconds on the bar (Rotor-Rod test), treated animals",[2]; C22 females,45.7 ± 10 s
same,"Seconds on the bar (Rotor-Rod test), treated animals",[2]; C22 males,46 ± 14 s
same,Age at which treated males were still alive,[3],still alive at age 24 months
same,Percentage of myelinated nerve fibers,C22 mice,70%
same,"Rotor-Rod test performance, first month of treatment",[4]; first month,not very effective
same,"Time on the bar (Rotor-Rod test), second month of treatment",[4]; from the second month,~50 s
same,"Rotor-Rod test performance, third month of treatment",[4]; third month,further improved
